As usually defined, the pIC50 is −log10 of the IC50, conventionally taken in molar units.

Consider 20 molecules from patent US10479795B2 (Incyte Corporation, priority 2016, dated 2019).

Experiment [1] has as its system Phosphorylated Ribosomal Protein S6 (RPS6). Nature of the experiment: THP-1 RPS6 ELISA Assay. Type of experiment: cell-based, Human. The note with it: THP-1 cells, read-out: PI3Kγ_THP1_RPS6_ELISA IC50. In a few lines:
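Serum-starved THP-1 cells were preincubated with a concentration range of compound for 2 h at 37 °C, then stimulated with 10 nM MCP-1 for 15 min. Phospho-RPS6 in lysates was quantified by ELISA at 450 nm. IC50 came from percent inhibition versus log inhibitor concentration.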
Background: ELISA stands for enzyme-linked immunosorbent assay.

For experiment [2], the target named is PI3Kγ (p110γ) Recombinant Human Protein (Homo sapiens (Human), UniProt P48736). Nature of the experiment: PI3K-γ Scintillation Proximity Assay. The class given is biochemical. To be noted: read-out: PI3Kγ IC50. In short, it runs like this: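 Recombinant human p110γ assayed at room temperature in 20 mM MOPS pH 6.7, 10 mM MgCl2, 5 mM DTT, 0.03% CHAPS, 2% DMSO, with 20 μM PIP2 and 2 μM ATP plus [γ-33P]ATP. Product captured on WGA SPA beads overnight and counted; IC50 fitted from % of solvent-control activity versus log inhibitor concentration.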
Sequence of PI3Kγ (p110γ) Recombinant Human Protein (P48736 whole entry): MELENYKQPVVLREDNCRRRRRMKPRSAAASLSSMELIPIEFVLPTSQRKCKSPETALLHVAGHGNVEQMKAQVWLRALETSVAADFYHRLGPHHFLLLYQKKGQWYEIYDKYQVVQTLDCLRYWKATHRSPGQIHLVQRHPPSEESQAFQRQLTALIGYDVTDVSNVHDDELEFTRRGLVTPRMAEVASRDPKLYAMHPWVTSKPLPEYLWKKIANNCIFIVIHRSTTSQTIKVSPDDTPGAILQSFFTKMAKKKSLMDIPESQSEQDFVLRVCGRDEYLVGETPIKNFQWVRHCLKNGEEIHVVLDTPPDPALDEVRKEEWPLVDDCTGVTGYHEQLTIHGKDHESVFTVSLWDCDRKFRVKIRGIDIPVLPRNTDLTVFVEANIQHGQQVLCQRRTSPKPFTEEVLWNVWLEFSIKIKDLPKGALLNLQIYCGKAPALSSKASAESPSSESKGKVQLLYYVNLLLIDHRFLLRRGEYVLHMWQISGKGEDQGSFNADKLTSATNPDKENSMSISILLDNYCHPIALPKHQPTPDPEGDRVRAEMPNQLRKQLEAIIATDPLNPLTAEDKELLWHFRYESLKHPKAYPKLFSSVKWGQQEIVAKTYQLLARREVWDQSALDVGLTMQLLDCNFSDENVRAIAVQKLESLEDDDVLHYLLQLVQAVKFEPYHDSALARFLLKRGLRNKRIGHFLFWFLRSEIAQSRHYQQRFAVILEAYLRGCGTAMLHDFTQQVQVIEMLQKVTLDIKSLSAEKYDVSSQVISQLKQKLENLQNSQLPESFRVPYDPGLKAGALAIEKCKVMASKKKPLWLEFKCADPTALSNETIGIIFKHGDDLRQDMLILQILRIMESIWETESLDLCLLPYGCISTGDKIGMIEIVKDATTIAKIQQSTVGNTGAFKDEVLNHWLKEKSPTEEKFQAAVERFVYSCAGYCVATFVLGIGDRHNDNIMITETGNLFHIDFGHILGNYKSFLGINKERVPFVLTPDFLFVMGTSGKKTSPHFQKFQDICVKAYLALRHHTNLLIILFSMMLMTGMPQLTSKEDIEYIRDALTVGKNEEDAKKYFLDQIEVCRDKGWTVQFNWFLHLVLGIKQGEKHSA

Experiment [3] concerns the target PI3Kδ (p110δ/p85α) Recombinant Human Protein (Homo sapiens (Human), UniProt O00329). Nature of the experiment: PI3Kδ Scintillation Proximity Assay. The class given is biochemical. In short, it runs like this:
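Recombinant human p110δ/p85α (3.4 nM) phosphorylates 20 μM di-octanoyl PIP2 using 2 μM ATP spiked with [γ-33P]ATP, 120 min, room temperature, pH 6.7, 2% DMSO. Product measured by scintillation proximity; IC50 from dose-response fit.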
Background: In a scintillation proximity assay essentially only radioactivity close to the scintillant gives light.

pIC50: −log10 of the molar value. Where a name gives a salt, the structure may show the parent alone. Read-outs that look alike come from different tables or passages of the source. Bounds are passed on as bounds.

Sequence of PI3Kδ (p110δ/p85α) Recombinant Human Protein (O00329 whole entry): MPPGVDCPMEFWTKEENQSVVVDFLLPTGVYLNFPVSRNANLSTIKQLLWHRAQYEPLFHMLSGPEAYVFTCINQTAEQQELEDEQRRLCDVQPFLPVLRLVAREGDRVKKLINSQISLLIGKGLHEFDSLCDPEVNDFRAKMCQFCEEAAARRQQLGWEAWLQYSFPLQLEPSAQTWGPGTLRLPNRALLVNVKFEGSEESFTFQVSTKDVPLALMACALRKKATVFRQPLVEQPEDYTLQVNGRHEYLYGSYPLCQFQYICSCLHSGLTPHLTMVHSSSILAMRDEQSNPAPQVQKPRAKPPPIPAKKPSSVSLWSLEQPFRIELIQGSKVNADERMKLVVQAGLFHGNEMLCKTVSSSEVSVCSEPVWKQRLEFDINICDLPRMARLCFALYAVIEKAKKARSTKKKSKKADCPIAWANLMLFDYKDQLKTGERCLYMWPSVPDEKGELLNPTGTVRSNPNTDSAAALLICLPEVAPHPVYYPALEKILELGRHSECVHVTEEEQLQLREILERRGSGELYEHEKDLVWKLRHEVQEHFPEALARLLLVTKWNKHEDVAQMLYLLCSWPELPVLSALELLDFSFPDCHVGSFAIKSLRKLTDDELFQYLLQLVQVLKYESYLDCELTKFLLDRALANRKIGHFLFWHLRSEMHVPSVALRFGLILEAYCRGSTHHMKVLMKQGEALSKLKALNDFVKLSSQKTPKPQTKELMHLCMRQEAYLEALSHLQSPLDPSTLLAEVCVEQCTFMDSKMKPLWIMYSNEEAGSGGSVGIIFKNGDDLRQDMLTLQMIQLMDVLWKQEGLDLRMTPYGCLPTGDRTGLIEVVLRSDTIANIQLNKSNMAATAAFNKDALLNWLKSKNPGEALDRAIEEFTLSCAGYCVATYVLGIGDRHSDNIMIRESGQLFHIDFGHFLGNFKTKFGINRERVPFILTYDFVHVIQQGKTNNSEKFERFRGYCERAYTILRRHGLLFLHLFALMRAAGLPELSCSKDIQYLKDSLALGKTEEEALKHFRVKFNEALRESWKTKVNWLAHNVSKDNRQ
Sequence of PI3Kδ (p110δ/p85α) Recombinant Human Protein (P27986 whole entry partner): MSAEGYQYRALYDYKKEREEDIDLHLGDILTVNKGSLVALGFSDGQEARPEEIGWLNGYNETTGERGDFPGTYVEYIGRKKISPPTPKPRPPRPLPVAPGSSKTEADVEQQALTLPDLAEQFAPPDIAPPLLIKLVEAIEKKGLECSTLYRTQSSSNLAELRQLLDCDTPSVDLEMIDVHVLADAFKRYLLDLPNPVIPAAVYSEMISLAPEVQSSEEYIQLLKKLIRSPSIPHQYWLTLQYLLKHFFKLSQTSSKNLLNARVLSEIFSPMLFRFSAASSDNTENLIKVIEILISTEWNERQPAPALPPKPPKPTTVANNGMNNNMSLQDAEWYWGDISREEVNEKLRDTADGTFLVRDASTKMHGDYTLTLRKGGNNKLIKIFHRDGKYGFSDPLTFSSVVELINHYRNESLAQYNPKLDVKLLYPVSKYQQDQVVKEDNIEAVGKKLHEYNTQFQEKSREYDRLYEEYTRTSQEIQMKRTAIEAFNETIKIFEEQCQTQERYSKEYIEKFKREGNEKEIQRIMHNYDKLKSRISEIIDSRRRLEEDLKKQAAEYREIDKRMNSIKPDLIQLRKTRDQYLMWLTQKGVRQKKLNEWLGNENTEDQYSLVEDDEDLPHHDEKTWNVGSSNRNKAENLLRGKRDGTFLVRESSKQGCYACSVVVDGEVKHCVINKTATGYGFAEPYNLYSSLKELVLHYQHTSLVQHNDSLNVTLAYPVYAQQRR

For `Cc1nc(N)c2ncc(-c3cc(S(=O)(=O)NC45CCC(CO)(CC4)OC5)cc(F)c3C)n2n1` [Example 404, 3-(4-amino-2-methylimidazo[1,2-f][1,2,4]triazin-7-yl)-5-fluoro-N-(1-(hydroxymethyl)-2-oxabicyclo[2.2.2]octan-4-yl)-4-methylbenzenesulfonamide trifluoroacetate salt], the pIC50 in experiment [1], in experiment [2] and in experiment [3] was over 7.00 each time.

As to `Nc1nc(C(F)(F)F)cn2c(-c3cccc(S(=O)(=O)NC45CCC(CO)(C4)C5)c3)cnc12` [Example 394, 3-(8-Amino-6-(trifluoromethyl)imidazo[1,2-a]pyrazin-3-yl)-N-(4-(hydroxymethyl)bicyclo[2.1.1]hexan-1-yl)benzenesulfonamide trifluoroacetate salt], the negative logarithm of the IC50 (pIC50) in experiment [1] (Homo sapiens) is 6.30 to 7.00; in experiment [2], over 7.00; in experiment [3], 6.30 to 7.00.

On to `Cc1ccc(S(=O)(=O)N[C@H]2CC[C@H](NC(=O)OC(C)(C)C)CC2)cc1-c1cnc2c(N)ncnn12` [Example 72, tert-Butyl [trans-4-({[3-(4-aminoimidazo[2,1-f][1,2,4]triazin-7-yl)-4-methylphenyl]sulfonyl}amino)cyclohexyl]carbamate], for which the pIC50 in experiment [1] (Homo sapiens) is under 6.00; in experiment [2], over 7.00; in experiment [3] it was under 5.70.

`Cc1ccc(S(=O)(=O)N[C@H]2CC[C@H](O)CC2)cc1-c1cnc2c(N)nc(-c3cc(C(F)(F)F)nn3C)cn12` [Example 80, 3-{8-Amino-6-[1-methyl-3-(trifluoromethyl)-1H-pyrazol-5-yl]imidazo[1,2-a]pyrazin-3-yl}-N-(trans-4-hydroxycyclohexyl)-4-methylbenzenesulfonamide]: the figures for the negative-log IC50 (pIC50) in experiment [1] (Homo sapiens), in experiment [2] and in experiment [3] were 6.30 to 7.00, over 7.00 and 6.30 to 7.00, respectively.

As to `N#CC12CCC(NS(=O)(=O)c3cc(-c4cnc5c(N)nc(C(F)(F)F)cn45)ccc3F)(C1)C2` [Example 396, 5-(8-Amino-6-(trifluoromethyl)imidazo[1,2-a]pyrazin-3-yl)-N-(4-cyanobicyclo[2.1.1]hexan-1-yl)-2-fluorobenzenesulfonamide trifluoroacetate salt], the pIC50 in experiment [1] (Homo sapiens) was 6.00 to 6.30; in experiment [2], over 7.00; in experiment [3] it was 6.30 to 7.00.

Take `Cc1nc(N)c2ncc(-c3cc(S(=O)(=O)N[C@H]4C[C@H](C#N)C4)ccc3C)n2n1` [Example 272, 3-(4-amino-2-methylimidazo[1,2-f][1,2,4]triazin-7-yl)-N-((1r,3r)-3-cyanocyclobutyl)-4-methylbenzenesulfonamide trifluoroacetate salt]: the pIC50 was 6.30 to 7.00 in experiment [1], over 7.00 in experiment [2] and 6.30 to 7.00 in experiment [3].

On to `COc1nc(CO)ccc1-c1cn2c(-c3cc(S(C)(=O)=O)ccc3C)cnc2c(N)n1` [Example 490, (5-(8-Amino-3-(2-methyl-5-(methylsulfonyl)phenyl)imidazo[1,2-a]pyrazin-6-yl)-6-methoxypyridin-2-yl)methanol trifluoroacetate], for which the negative logarithm of the IC50 (pIC50) is over 7.00 in experiment [1] (Homo sapiens), over 7.00 in experiment [2] and 6.30 to 7.00 in experiment [3].

Turning to `CNC(=O)c1cn2c(-c3cc(S(=O)(=O)NC4CC(F)(F)C4)ccc3C)cnc2c(N)n1` [Example 447, 8-Amino-3-(5-(N-(3,3-difluorocyclobutyl)sulfamoyl)-2-methylphenyl)-N-methylimidazo[1,2-a]pyrazine-6-carboxamide trifluoroacetate salt], the pIC50 is 6.00 to 6.30 in experiment [1] (Homo sapiens), over 7.00 in experiment [2] and 5.70 to 6.30 in experiment [3].

Take `Cc1ccc(S(=O)(=O)NC23CCC(F)(CC2)CC3)cc1-c1cnc2c(N)ncnn12` [Example 188, 3-(4-aminoimidazo[2,1-f][1,2,4]triazin-7-yl)-N-(4-fluorobicyclo[2.2.2]octan-1-yl)-4-methylbenzenesulfonamide]: the pIC50 in experiment [1] (Homo sapiens) is 6.30 to 7.00; in experiment [2] it was over 7.00; in experiment [3], over 7.00.

`Cc1ccc(S(=O)(=O)NC2CN(CCO)C2)cc1-c1cnc2c(N)nc(C(F)(F)F)nn12` [Example 329, 3-(4-Amino-2-(trifluoromethyl)imidazo[1,2-f][1,2,4]triazin-7-yl)-N-(1-(2-hydroxyethyl)azetidin-3-yl)-4-methylbenzenesulfonamide trifluoroacetate salt]: the values for the pIC50 in experiment [1], in experiment [2] and in experiment [3] were 6.30 to 7.00, over 7.00 and 6.30 to 7.00, respectively.

Regarding `Cc1ccc(S(=O)(=O)NC2CCOC2C)cc1-c1cnc2c(N)ncnn12` (stereo not drawn) [Example 100, 3-(4-Aminoimidazo[1,2-f][1,2,4]triazin-7-yl)-4-methyl-N-(2-methyltetrahydrofuran-3-yl)benzenesulfonamide trifluoroacetate salt], the pIC50 is 6.00 to 6.30 in experiment [1], over 7.00 in experiment [2] and 5.70 to 6.30 in experiment [3].

On to `CNC(=O)c1cn2c(-c3cc(S(=O)(=O)N[C@H]4CC[C@H](CC#N)OC4)ccc3C)cnc2c(N)n1` [Example 449, 8-Amino-3-(5-(N-((3S,6R)-6-(cyanomethyl)tetrahydro-2H-pyran-3-yl)sulfamoyl)-2-methylphenyl)-N-methylimidazo[1,2-a]pyrazine-6-carboxamide trifluoroacetate salt], for which the pIC50 in experiment [1] (Homo sapiens) was under 6.00; in experiment [2], over 7.00; in experiment [3], 6.30 to 7.00.

Turning to `Cc1ccc(S(=O)(=O)N(CCC#N)C2CC2)cc1-c1cnc2c(N)nc(C(F)(F)F)nn12` [Example 345, 3-(4-amino-2-(trifluoromethyl)imidazo[2,1-f][1,2,4]triazin-7-yl)-N-(2-cyanoethyl)-N-cyclopropyl-4-methylbenzenesulfonamide], the values for the negative logarithm of the IC50 (pIC50) in experiment [1] (Homo sapiens), in experiment [2] and in experiment [3] were under 6.00, over 7.00 and 6.30 to 7.00, respectively.

For `Cc1ccc(S(=O)(=O)N[C@H]2CC[C@H](CC#N)OC2)cc1-c1cnc2c(N)nc(C(=O)NC3CCC3)cn12` [Example 450, 8-amino-3-(5-(N-((3S,6R)-6-(cyanomethyl)tetrahydro-2H-pyran-3-yl)sulfamoyl)-2-methylphenyl)-N-cyclobutylimidazo[1,2-a]pyrazine-6-carboxamide trifluoroacetate salt], the pIC50 in experiment [1] (Homo sapiens) is 6.00 to 6.30; in experiment [2], over 7.00; in experiment [3], 6.30 to 7.00.

Consider `Cc1ccc(S(=O)(=O)NC23CCC(CC2)CC3)cc1-c1cnc2c(N)ncnn12` [Example 181, 3-(4-aminoimidazo[1,2-f][1,2,4]triazin-7-yl)-N-(bicyclo[2.2.2]octan-1-yl)-4-methylbenzenesulfonamide trifluoroacetate salt], for which the values for the pIC50 in experiment [1], in experiment [2] and in experiment [3] were 6.30 to 7.00, over 7.00 and over 7.00, respectively.

Take `Cc1c(F)cc(S(=O)(=O)NC23CCC(CO)(CC2)OC3)cc1-c1cnc2c(N)ncnn12` [Example 375, 3-(4-aminoimidazo[1,2-f][1,2,4]triazin-7-yl)-5-fluoro-N-(1-(hydroxymethyl)-2-oxabicyclo[2.2.2]octan-4-yl)-4-methylbenzenesulfonamide trifluoroacetate salt]: the pIC50 in experiment [1] is over 7.00; in experiment [2], over 7.00; in experiment [3], 6.30 to 7.00.

For the molecule `Cc1ccc(S(=O)(=O)NC2CN(C3COC3)C2)cc1-c1cnc2c(N)nc(C(F)(F)F)nn12` [Example 337, 3-(4-Amino-2-(trifluoromethyl)imidazo[1,2-f][1,2,4]triazin-7-yl)-4-methyl-N-(1-(oxetan-3-yl)azetidin-3-yl)benzenesulfonamide trifluoroacetate salt], the pIC50 in experiment [1] is 6.30 to 7.00; in experiment [2], over 7.00; in experiment [3] it was 6.30 to 7.00.

In the case of `[2H]C([2H])([2H])c1ccc(S(=O)(=O)N[C@H]2CC[C@H](CC#N)OC2)cc1-c1cnc2c(N)nc(C(F)(F)F)cn12` [Example 406, 3-(8-amino-6-(trifluoromethyl)imidazo[1,2-a]pyrazin-3-yl)-N-((3S,6R)-6-(cyanomethyl)tetrahydro-2H-pyran-3-yl)-4-(methyl-d3)benzenesulfonamide], the pIC50 in experiment [1] (Homo sapiens), in experiment [2] and in experiment [3] was over 7.00 throughout.

Take `Cc1ccc(S(=O)(=O)NC23CCN(CC2)CC3)cc1-c1cnc2c(N)ncnn12` [Example 182, 3-(4-aminoimidazo[1,2-f][1,2,4]triazin-7-yl)-4-methyl-N-(quinuclidin-4-yl)benzenesulfonamide trifluoroacetate salt]: the figures for the pIC50 in experiment [1], in experiment [2] and in experiment [3] were 6.00 to 6.30, over 7.00 and 5.70 to 6.30, respectively.

Consider `[2H][C@]1(NS(=O)(=O)c2ccc(C)c(-c3cnc4c(N)ncnn34)c2)CC[C@](C)(O)CC1` [Example 508, 3-(4-Aminoimidazo[2,1-f][1,2,4]triazin-7-yl)-N-((1r,4r)-4-hydroxy-4-methylcyclohexyl-1-d)-4-methylbenzenesulfonamide trifluoroacetate], for which the pIC50 in experiment [1] (Homo sapiens) was 6.00 to 6.30; in experiment [2], over 7.00; in experiment [3] it was 6.30 to 7.00.
